Results from patent EP1044000B1, “COMBINATION THERAPY FOR THE TREATMENT OF AIDS” (MERCK & CO., INC., priority 1997, dated 1999).
Where two headings read alike, the source gives them in different places.

Columns and labels:
CYPIIIA4 = CYPIIIA4 (Homo sapiens, UniProt P08684); experiment: in vitro inhibition of CYPIIIA4; assay type: in vitro ADME
[1] = Pharmacokinetic study of Compound A in healthy human males (Example 10); assay type: in vivo; details: male, plasma, po, suspension of sulfate salt; for Tmax: mean of 6 subjects; for Cmax / AUC: mean of 6 subjects (CV %); for concentration at 8 h: plasma 8 hours after dosing, read-out: C8 hrs; for concentration at 12 h: plasma 12 hours after dosing, read-out: C12 hrs
Experimental: A double-blind, single-rising dose, alternating two-panel, four-period, placebo-controlled study was conducted for Compound A in healthy adult males in the fasted state. Single doses of 20, 50, 100, 200, 400, 800 and 1200 mg of Compound A, or placebo, were administered as an oral suspension of the sulfate salt form of Compound A in sterile water. Each subject received increasing single oral doses of Compound A or placebo during each of the four treatment periods in alternate panels. Panel A dosage levels were 20, 100, 400 mg, and 400 mg with food. Panel B dosage levels were 50, 200, 800 and 1200 mg. For each period, 6 subjects received Compound A and 2 subjects received placebo as allocated by a randomized schedule. In Panel A, subjects who received 400 mg of Compound A also received 400 mg of Compound A with food. The safety of the subjects was monitored prior and subsequent to dosing by clinical adverse event reporting, measurement of vital signs, physical examinations, blood and urine laboratory safety tests, and ECGs. […]

[2] = Pharmacokinetic study of Compound A alone and in combination with Indinavir in healthy human males (Example 11); assay type: in vivo; details: for Cmax / Tmax / AUC / concentration at 8 h / concentration at 12 h / concentration at 24 h: male, human, plasma, po, fasted; for Cmax / Tmax: arithmetic mean; for AUC: arithmetic mean (CV %); for concentration at 8 h: plasma 8 hours after dosing, read-out: C8 hrs; for concentration at 12 h: plasma 12 hours after dosing, read-out: C12 rs; for concentration at 24 h: plasma 24 hours after dosing, read-out: C24 hrs
Experimental: A double-blind, single-rising dose, alternating two-panel, four-period, placebo-controlled study was conducted for Compound A alone and in combination with Indinavir in healthy adult males in the fasted state. […] All of the doses of Compound A were administered as the sulfate salt form of Compound A. All of the Compound A doses were oral suspensions of the sulfate salt form in sterile water, except that the 600-mg doses administered to Panel B in the fourth period were tablets. Indinavir was administered in the form of CRIXIVAN® capsules. The safety of the subjects was monitored prior and subsequent to dosing by clinical adverse event reporting, measurement of vital signs, physical examinations, blood and urine laboratory safety tests, and ECGs. Plasma concentrations of Compound A were determined predose and at 0.5, 1, 1.5, 2, 3, 4, 6, 8, 12, 16, 20, 24, 30, 36 and 48 hours following each single dose in each period, using a reverse-phase HPLC column switching method with fluorescence detection.

[3] = 50 mg, 50 mg single oral dose, fasted
[4] = 100 mg, 100 mg single oral dose, fasted
[5] = 200 mg, 200 mg single oral dose, fasted
[6] = 400 mg, 400 mg single oral dose, fasted
[7] = 400 mg, 400 mg single oral dose, fasted, CV not determinable
[8] = 400 mg, 400 mg w/food, single oral dose
[9] = 800 mg, 800 mg single oral dose, fasted
[10] = 800 mg, 800 mg single oral dose, fasted, mean (CV %)
[11] = 1200 mg, 1200 mg single oral dose, fasted
[12] = 1200 mg, 1200 mg single oral dose, fasted, mean (CV %)
[13] = 200 mg of Compound A with 800 mg of Indinavir relative to 200 mg of Compound A alone (Table 3 vs Table 2)
[14] = 200 mg Compound A + 800 mg IDV (Indinavir) co-administered, single oral dose, n=6
[15] = 200 mg Compound A + 1200 mg IDV (Indinavir) co-administered, single oral dose, n=6
[16] = 400 mg Compound A + 800 mg IDV (Indinavir) co-administered, single oral dose, n=6
[17] = 600 mg Compound A + 800 mg IDV (Indinavir) co-administered, single oral dose, n=8
[18] = 600 mg, 600 mg (tablets) single oral dose, sulfate salt, n=8
[19] = 600 mg, 600 mg single oral dose, suspension of sulfate salt, n=8
[20] = 1600 mg, 1600 mg single oral dose, suspension of sulfate salt, n=6
[21] = 2000 mg, 2000 mg single oral dose, suspension of sulfate salt, n=8

CYPIIIA4, sequence (P08684 whole entry): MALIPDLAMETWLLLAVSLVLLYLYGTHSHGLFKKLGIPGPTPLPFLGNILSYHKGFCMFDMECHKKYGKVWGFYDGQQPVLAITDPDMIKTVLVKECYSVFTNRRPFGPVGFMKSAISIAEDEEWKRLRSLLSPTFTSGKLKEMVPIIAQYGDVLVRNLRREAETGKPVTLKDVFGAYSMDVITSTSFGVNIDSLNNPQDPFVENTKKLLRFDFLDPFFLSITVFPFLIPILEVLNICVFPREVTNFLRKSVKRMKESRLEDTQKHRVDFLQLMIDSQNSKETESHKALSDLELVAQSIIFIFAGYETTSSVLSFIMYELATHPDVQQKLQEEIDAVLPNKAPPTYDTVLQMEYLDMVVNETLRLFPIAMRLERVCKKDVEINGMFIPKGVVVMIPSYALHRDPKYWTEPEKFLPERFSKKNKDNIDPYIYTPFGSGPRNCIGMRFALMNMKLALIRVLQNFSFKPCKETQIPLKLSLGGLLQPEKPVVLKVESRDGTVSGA

`CC(C)(C)NC(=O)[C@@H]1CN(Cc2cc3ccccc3o2)CCN1C[C@@H](O)C[C@@H](Cc1ccccc1)C(=O)N[C@H]1c2ccccc2C[C@H]1O` [Compound A, N-(2(R)-hydroxy-1(S)-indanyl)-2(R)-phenylmethyl-4-(S)-hydroxy-5-(1-(4-(2-benzo[b]furanylmethyl)-2(S)-N'-(t-butylcarboxamido)-piperazinyl))-pentaneamide] showed an IC50 (CYPIIIA4) of 30 µM, a Tmax [1, 3] of 0.6 h and a Cmax [1, 3] of 12 nM. For the same molecule, the Tmax [1, 4] was 0.5 h, the Cmax [1, 4] was 36 nM and the Tmax [1, 5] was 0.7 h. For the same molecule, the AUC [1, 5] was 0.24 µM·h, the Cmax [1, 5] was 85 nM and the concentration at 8 h ([1]; 200 mg, 200 mg single oral dose, fasted, CV not determinable) was 5 nM. It also gave a Tmax [1, 6] of 1.8 h, an AUC [1, 6] of 0.66 µM·h and a Cmax [1, 6] of 166 nM. It also gave a concentration at 8 h [1, 7] of 15 nM, a concentration at 12 h [1, 7] of 6 nM and a Tmax [1, 8] of 4 h. It also gave an AUC [1, 8] of 0.8 µM·h, a Cmax [1, 8] of 170 nM and a concentration at 8 h ([1]; 400 mg, 400 mg w/food, single oral dose, mean (CV %)) of 32 nM. For the same molecule, the concentration at 12 h ([1]; 400 mg, 400 mg w/food, single oral dose, CV not determinable) was 7 nM, the Tmax [1, 9] was 2.6 h and the AUC [1, 9] was 3.09 µM·h. It also gave a Cmax [1, 9] of 568 nM, a concentration at 8 h [1, 10] of 126 nM and a concentration at 12 h [1, 10] of 45 nM. For the same molecule, the Tmax [1, 11] was 2.1 h, the AUC [1, 11] was 7.28 µM·h and the Cmax [1, 11] was 1350 nM. The concentration at 8 h [1, 12] was 338 nM, the concentration at 12 h [1, 12] was 128 nM and the “AUC of Compound A higher for co-administration with Indinavir relative to Compound A alone” value [2, 13] was “about 30 x”. The “C8 hrs higher for co-administration with Indinavir relative to Compound A alone” value [2, 13] was ~46 x, the “Cmax higher for co-administration with Indinavir relative to Compound A alone” value [2, 13] was “about 19 x” and the “AUC higher than for administration of Compound A alone” value ([2]; 600 mg of Compound A in combination with 800 mg of Indinavir versus Compound A alone) was “about 18 fold”. The Cmax [2, 14] was 1580 nM, the Tmax [2, 14] was 2.2 h and the AUC [2, 14] was 7.45 µM·h. For the same molecule, the concentration at 8 h [2, 14] was 232 nM, the concentration at 12 h [2, 14] was 70 nM and the concentration at 24 h [2, 14] was 8 nM. The Cmax [2, 15] was 1560 nM, the Tmax [2, 15] was 2.3 h and the AUC [2, 15] was 9.22 µM·h. It also gave a concentration at 8 h [2, 15] of 416 nM, a concentration at 12 h [2, 15] of 107 nM and a concentration at 24 h [2, 15] of 10 nM. It also gave a Cmax [2, 16] of 2350 nM, a Tmax [2, 16] of 2.5 h and an AUC [2, 16] of 12.2 µM·h. The concentration at 8 h [2, 16] was 399 nM, the concentration at 12 h [2, 16] was 124 nM and the concentration at 24 h [2, 16] was 20 nM. The Cmax [2, 17] was 3880 nM, the Tmax [2, 17] was 3.3 h and the AUC [2, 17] was 25.2 µM·h. It also gave a concentration at 8 h [2, 17] of 1190 nM, a concentration at 12 h [2, 17] of 352 nM and a concentration at 24 h [2, 17] of 65 nM. The Cmax [2, 18] was 211 nM, the Tmax [2, 18] was 1.5 h and the AUC [2, 18] was 1.42 µM·h. For the same molecule, the concentration at 8 h [2, 18] was 50 nM, the concentration at 12 h [2, 18] was 38 nM and the concentration at 24 h [2, 18] was 17 nM. The Cmax [2, 19] was 208 nM, the Tmax [2, 19] was 1.4 h and the AUC [2, 19] was 1.41 µM·h. It also gave a concentration at 8 h [2, 19] of 55 nM, a concentration at 12 h [2, 19] of 39 nM and a concentration at 24 h [2, 19] of 13 nM. It also gave a Cmax [2, 20] of 613 nM, a Tmax [2, 20] of 2 h and an AUC [2, 20] of 4.72 µM·h. For the same molecule, the concentration at 8 h [2, 20] was 163 nM, the concentration at 12 h [2, 20] was 93 nM and the concentration at 24 h [2, 20] was 46 nM. The Cmax [2, 21] was 1270 nM, the Tmax [2, 21] was 2.5 h and the AUC [2, 21] was 10.4 µM·h. For the same molecule, the concentration at 8 h [2, 21] was 444 nM, the concentration at 12 h [2, 21] was 250 nM and the concentration at 24 h [2, 21] was 105 nM.
